Reference: publication PMC9555642 (PLoS ONE, 2022)

Target: T1, HDAC10 (Homo sapiens, UniProt Q969S8)
T1 construct: purchased Eurofins Pharma Discovery Services 2662
T1 sequence (Q969S8 1-669): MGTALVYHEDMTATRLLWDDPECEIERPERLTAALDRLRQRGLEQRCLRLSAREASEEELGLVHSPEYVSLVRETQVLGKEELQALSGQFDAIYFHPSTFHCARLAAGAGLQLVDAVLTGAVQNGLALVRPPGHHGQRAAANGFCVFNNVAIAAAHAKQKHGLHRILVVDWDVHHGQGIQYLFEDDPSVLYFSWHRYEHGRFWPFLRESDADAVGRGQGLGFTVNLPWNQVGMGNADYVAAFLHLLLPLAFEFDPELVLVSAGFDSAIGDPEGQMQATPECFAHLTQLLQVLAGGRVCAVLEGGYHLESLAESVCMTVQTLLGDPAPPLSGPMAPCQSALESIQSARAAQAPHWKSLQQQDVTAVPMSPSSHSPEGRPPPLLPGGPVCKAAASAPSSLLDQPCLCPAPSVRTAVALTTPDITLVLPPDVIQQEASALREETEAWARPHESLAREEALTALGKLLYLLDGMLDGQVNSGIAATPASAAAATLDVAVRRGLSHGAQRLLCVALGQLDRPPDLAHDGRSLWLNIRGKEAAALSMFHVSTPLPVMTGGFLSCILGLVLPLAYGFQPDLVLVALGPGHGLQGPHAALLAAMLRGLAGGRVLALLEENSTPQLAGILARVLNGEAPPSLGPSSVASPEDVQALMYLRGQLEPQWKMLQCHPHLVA
Test: HDAC enzymatic activity (Eurofins)
Type: biochemical

SMILES: O=C(CCCCCCNC(=O)c1cnc(N(c2ccccc2)c2ccccc2)nc1)NO [Ricolinostat]
- IC50: 0.901 µM
